Converted amounts (≈) assume the structure as drawn. Like-named read-outs stand apart in the source and are kept apart here.
Assays:
[1] = system: Pseudomonas aeruginosa ATCC 27853; assay: microbe, parasite or virus in culture; conditions: ATCC27853, 24 h
[2] = system: MDR P. aeruginosa clinical isolate No.1; assay: microbe, parasite or virus in culture; conditions: Pseudomonas aeruginosa
[3] = system: MDR P. aeruginosa clinical isolate No.2; assay: microbe, parasite or virus in culture; conditions: Pseudomonas aeruginosa
[4] = system: MDR P. aeruginosa clinical isolate No.3; assay: microbe, parasite or virus in culture; conditions: Pseudomonas aeruginosa
[5] = system: MDR P. aeruginosa clinical isolate No.4; assay: microbe, parasite or virus in culture; conditions: Pseudomonas aeruginosa
[6] = system: MDR P. aeruginosa clinical isolate No.5; assay: microbe, parasite or virus in culture; conditions: Pseudomonas aeruginosa
[7] = system: MDR P. aeruginosa clinical isolate No.6; assay: microbe, parasite or virus in culture; conditions: Pseudomonas aeruginosa
[8] = system: MDR P. aeruginosa clinical isolate No.7; assay: microbe, parasite or virus in culture; conditions: Pseudomonas aeruginosa
[9] = system: MDR P. aeruginosa clinical isolate No.8; assay: microbe, parasite or virus in culture; conditions: Pseudomonas aeruginosa
[10] = system: MDR P. aeruginosa clinical isolate No.9; assay: microbe, parasite or virus in culture; conditions: Pseudomonas aeruginosa
[11] = system: MDR P. aeruginosa clinical isolate No.10; assay: microbe, parasite or virus in culture; conditions: Pseudomonas aeruginosa
[12] = system: MDR P. aeruginosa clinical isolate No.11; assay: microbe, parasite or virus in culture; conditions: Pseudomonas aeruginosa
[13] = system: MDR P. aeruginosa clinical isolate No.12; assay: microbe, parasite or virus in culture; conditions: Pseudomonas aeruginosa
[14] = system: MDR P. aeruginosa clinical isolate No.13; assay: microbe, parasite or virus in culture; conditions: Pseudomonas aeruginosa
[15] = system: MDR P. aeruginosa clinical isolate No.14; assay: microbe, parasite or virus in culture; conditions: Pseudomonas aeruginosa
[16] = system: human red blood cells (hRBCs); assay: Hemolytic activity, hemoglobin release; conditions: 2% hRBC, 1 h, 37 °C
Procedure: Hemolytic activity of the peptides was assayed against human red blood cells (hRBCs) by measuring the amount of hemoglobin released after treatment. The hRBCs, freshly collected from a healthy volunteer in polycarbonate tubes containing heparin, were washed three times in sterile phosphate buffered saline (PBS) and centrifuged at 2,000 × g for 5 min or until the supernatant became clear. […] After 1 h of incubation at 37 °C, intact hRBCs were pelleted by centrifugation at 2,000 × g for 10 min. The supernatant was transferred to a new 96-well plate and the release of hemoglobin was monitored by measurement of absorbance at 405 nm using a Multiskan FC microplate reader. The hRBCs in PBS only (ODBlank) and in 0.1% Triton X-100 (ODTriton X-100) were employed as negative (0% hemolysis) and positive (100% hemolysis) controls, respectively. The percentage of hemolysis was calculated according to the following equation: %Hemolysis=(ODSample−ABlank)/(ODTritonX−100−ODBlank)×100

[17] = system: all Gram-negative strains; assay: Mean MIC and therapeutic index, Gram-negative strains; format: cell-based; conditions: 7 Gram-negative strains of Table 3
Procedure: (§1) The antimicrobial activity of the peptides was determined against both Gram-positive and -negative bacteria including 14 MDR P. aeruginosa clinical isolates from Bhumibol Adulyadej Hospital (Tables 1 and 3). The minimal inhibitory concentration (MIC) of each peptide was measured according to a modification of the National Committee for Clinical Laboratory Standards (NCCLS) broth microdilution method as previously described. Briefly, bacterial cells in mid-log phase were cultured in Müeller-Hinton broth (MHB) and then diluted to 10^7 CFU/ml. […] Plates were incubated at 37 °C for 24 h, and MICs were defined as the lowest concentration of peptide that prevented visible turbidity. Cultures without peptides and uninoculated MHB were employed as positive and negative controls, respectively. Colony count assays were performed to determine the minimal bactericidal concentrations (MBCs) for determination of time-killing activity. As previously described, a 50 μl aliquot from each non-turbid well identified in the MIC determination experiment was spread on agar plates.
(§2) To further evaluate the global activity of these peptides, the geometric mean (GM) MIC and the therapeutic index (TI) of each were calculated (Table 3). The TI, a widely used parameter to evaluate cell selectivity and specificity of antimicrobial agents, was calculated as the ratio of MHC (the concentration that causes 10% hemolysis) to the geometric mean of MICs[22]. Higher TIs indicated greater cell selectivity and specificity.

[18] = system: all Gram-positive strains; assay: Mean MIC and therapeutic index, Gram-positive strains; format: cell-based; conditions: 5 Gram-positive strains of Table 3
Procedure: as §1, §2

[19] = system: P. aeruginosa ATCC 27853; assay: Membrane permeability (PI) and depolarization (BOX), flow cytometry; format: cell-based, Pseudomonas aeruginosa; conditions: 1 × MIC, 30 min; for permeabilized and depolarized cells (BOX+PI+): 37 °C, triplicate
Procedure: Their outer and inner membranes provide important protection for Gram-negative bacteria. To assess membrane permeability and depolarization induced by PA-13, the DNA intercalating dyes propidium iodide (PI) and bis-(1,3-dibutylbarbituric acid) trimethine oxonol (BOX) were used as previously described. The fluorescence conferred by these dyes is generally associated with the loss of membrane integrity and potential, respectively.
Briefly, P. aeruginosa ATCC 27853 was cultured to mid-logarithmic phase and harvested by centrifugation at 2,000 × g for 5 min. The bacterial cells were washed thrice with PBS and diluted to 10^7 CFU/ml in 50 ml of PBS. […] Bacterial pellets were harvested and washed with PBS by centrifugation at 10,000 × g for 10 min. […] Untreated bacterial cells (no peptide) served as a negative control, whereas bacterial cells treated with melittin served as a positive control. Data was recorded using a flow cytometer (CytoFlex, Beckman Coulter) at a laser excitation wavelength of 488 nm. Forward scatter (FS), side scatter (SS), green fluorescence (530/30 nm) from BOX and red fluorescence (585/42 nm) emitted by PI were collected using logarithmic scales. 25,000 cells, defined according to their scatter parameters, were counted in each sample. The experiments were performed in triplicate and the data was analyzed using Kaluza software.

[20] = system: Pseudomonas aeruginosa ATCC 27853; conditions: P. aeruginosa ATCC 27853; MHB, 10^7 CFU/ml, 37 °C, 24 h, no visible turbidity
[21] = system: Escherichia coli O157:H7 MT strain; conditions: E. coli O157:H7 MT strain; MHB, 37 °C, 24 h
[22] = system: Shigella sonnei ATCC 11060; conditions: MHB, 37 °C, 24 h
[23] = system: Salmonella Typhimurium ATCC 13311; conditions: Salmonella Typhimurium ATCC 13311; MHB, 37 °C, 24 h
[24] = system: Vibrio cholera O1 Inaba DMST 16261; conditions: MHB, 37 °C, 24 h
[25] = system: Acinetobacter baumannii MT strain; conditions: Acinetobacter baumannii MT strain; MHB, 37 °C, 24 h
[26] = system: Staphylococcus epidermidis ATCC 12228; conditions: S. epidermidis ATCC 12228; MHB, 37 °C, 24 h
[27] = system: Bacillus cereus ATCC 11778; conditions: Bacillus cereus ATCC 11778; MHB, 37 °C, 24 h
[28] = system: Enterococcus faecalis ATCC 29212; conditions: Enterococcus faecalis ATCC 29212; MHB, 37 °C, 24 h
[29] = system: Listeria monocytogenes 10403 s; conditions: Listeria monocytogenes 10403 s; MHB, 37 °C, 24 h
[30] = system: L929 mouse fibroblast cells; assay: Cytotoxicity, MTT viability assay; conditions: 250 µg/ml, 24 h, triplicate

Structure (SMILES): C[C@@H](O)[C@H]1C(=O)N2C(C(=O)O)=C(SCCN=CN)C[C@H]12 [Imipenem]
- MIC [1]: ≤ 0.98 µg/mL
- MIC [2]: > 125 µg/mL
- MIC [3]: > 125 µg/mL
- MIC [4]: > 125 µg/mL
- MIC [5]: > 125 µg/mL
- MIC [6]: 125 µg/mL (≈ 418 µM)
- MIC [7]: > 125 µg/mL
- MIC [8]: > 125 µg/mL
- MIC [9]: 125 µg/mL (≈ 418 µM)
- MIC [10]: > 125 µg/mL
- MIC [11]: > 125 µg/mL
- MIC [12]: > 125 µg/mL
- MIC [13]: 125 µg/mL (≈ 418 µM)
- MIC [14]: 62.5 µg/mL (≈ 209 µM)
- MIC [15]: > 125 µg/mL

Structure (SMILES): CC[C@H](C)[C@H](NC(=O)CN)C(=O)NCC(=O)N[C@@H](C)C(=O)N[C@H](C(=O)N[C@@H](CC(C)C)C(=O)N[C@@H](CCCCN)C(=O)N[C@H](C(=O)N[C@@H](CC(C)C)C(=O)N[C@H](C(=O)N[C@H](C(=O)NCC(=O)N[C@@H](CC(C)C)C(=O)N1CCC[C@H]1C(=O)N[C@@H](C)C(=O)N[C@@H](CC(C)C)C(=O)N[C@H](C(=O)N[C@@H](CO)C(=O)N[C@@H](Cc1c[nH]c2ccccc12)C(=O)N[C@H](C(=O)N[C@@H](CCCCN)C(=O)N[C@@H](CCCNC(=N)N)C(=O)N[C@@H](CCCCN)C(=O)N[C@@H](CCCNC(=N)N)C(=O)N[C@@H](CCC(N)=O)C(=O)N[C@@H](CCC(N)=O)C(N)=O)[C@@H](C)CC)[C@@H](C)CC)[C@@H](C)O)[C@@H](C)O)C(C)C)C(C)C [Melittin, reference compound]
- concentration at which hemolysis was complete (100%) [16]: 1950 ng/mL
- GM (Gr.− strains): geometric mean of MIC values from all Gram-negative strains [17]: 10.60 µg/mL
- GM (Gr.+ strains): geometric mean of MIC values from all Gram-positive strains [18]: 3.52 µg/mL
- cell population BOX+PI- [19]: 2.70%
- cell population BOX-PI+ [19]: 0.12%
- cell population BOX-PI- [19]: 3.14%
- permeabilized and depolarized cells (BOX+PI+) [19]: 94.04%
- permeabilized and depolarized cells (BOX+PI+) ([19]; listed as melittin): 94.04 ± 3.25%
- MIC [20]: 15.63 µg/mL (≈ 5.49 µM)
- MIC [21]: 7.81 µg/mL (≈ 2.74 µM)
- MIC [22]: 3.91 µg/mL (≈ 1.37 µM)
- MIC [23]: 3.91 µg/mL (≈ 1.37 µM)
- MIC [24]: 3.91 µg/mL (≈ 1.37 µM)
- MIC [25]: 7.81 µg/mL (≈ 2.74 µM)
- MIC [26]: 3.91 µg/mL (≈ 1.37 µM)
- MIC [27]: 3.91 µg/mL (≈ 1.37 µM)
- MIC [28]: 1.95 µg/mL (≈ 0.685 µM)
- MIC [29]: 3.91 µg/mL (≈ 1.37 µM)
- L929 cell survival at the maximum concentration [30]: less than 1%

— PMC7272617 (Scientific Reports, 2020)
